Results as given in PMC5786472 (Cell, 2018).
Where no end group is shown, it is not given here.

Assays:
E. coli = assay: SLAY screen of a defined library of five surface-displayed peptides; assay type: cell-based, Escherichia coli
[1] = test system: E. coli K-12 strain W3110; assay type: cell-based, Escherichia coli
[2] = test system: E. coli W3110, Acinetobacter baumannii (Ab 5075), Pseudomonas aeruginosa (PA14), NDM E. coli; details: 20 h
[3] = test system: E. coli conferring New-Delhi metallo-beta-lactamase (NDM) resistance; details: 10mM Tris (pH7.4) + 25mM NaCl, 20 hours, 37°C, at least 99.9% killing of inoculum; representative of three independent experiments

| Compound | effect of surface-displayed peptide on growth [1] | MBC NDM E. coli [3] | further results |
| --- | --- | --- | --- |
| YPYDVPDYAAYPYDVPDYAA [Peptide 2xHA] | grew similarly at all IPTG concentrations | – | log2 fold (E. coli): −0.01 |
| dermaseptin | strong antimicrobial activity | – | – |
| RLVRILVSKRPVAIKPYFRL [Peptide P1] | – | – | MBC over all bacteria tested [2]: less than 2 μM |
| DATPHAALFFTVKDHTAGDN [Peptide P15] | – | 64 µM | – |
| CC(C)C[C@H](NC(=O)[C@H](CCCNC(=N)N)NC(=O)CNC(=O)CNC(=O)[C@@H](N)CCCNC(=N)N)C(=O)N[C@H]1CSSC[C@@H](C(=O)N[C@H](C(=O)NCC(=O)N[C@@H](CCCNC(=N)N)C(N)=O)C(C)C)NC(=O)[C@H](C(C)C)NC(=O)[C@@H]2CSSC[C@H](NC(=O)[C@H](Cc3ccc(O)cc3)NC1=O)C(=O)N[C@@H](CCCNC(=N)N)C(=O)N[C@@H](CCCNC(=N)N)C(=O)N[C@@H](CCCNC(=N)N)C(=O)N[C@@H](Cc1ccccc1)C(=O)N2 [Protegrin 1] | strong antimicrobial activity | – | – |
| LPLPSCSSHGGDADNTSQRN [Peptide P11] | – | 32 µM | – |
